PubChem BioAssay AID2060494 (Molecular Pharmacology Branch, DTP, NCI, 2025)

System: 435261-313-R-J1-PDC complex spheroid viability
Assay: Anticancer human tumor 435261-313-R-J1-PDC patient-derived colon adenocarcinoma cell line growth inhibition [GQUAD]
Conditions: for IC50: curve of first compound; for viability, T/C: stronger effect = lower value
Summary of the method: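 Multi-cell-type spheroids of tumor cells with HUVEC and mesenchymal stem cells, treated with drug combinations. Concentrations descend in half-log steps from near clinical Cmax, or from 10 microM where Cmax is unknown; viability read-out.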

[1] = second compound 0.0316 µM, first compound 0.0316 µM
[2] = second compound 0.0316 µM, first compound 0.1 µM
[3] = second compound 0.0316 µM, first compound 0.316 µM
[4] = second compound 0.0316 µM, first compound 1 µM
[5] = second compound 0.0316 µM, first compound 3.16 µM
[6] = second compound 0.0316 µM, first compound 10 µM
[7] = second compound 0.1 µM, first compound 0.0316 µM
[8] = second compound 0.1 µM, first compound 0.1 µM
[9] = second compound 0.1 µM, first compound 0.316 µM
[10] = second compound 0.1 µM, first compound 1 µM
[11] = second compound 0.1 µM, first compound 3.16 µM
[12] = second compound 0.1 µM, first compound 10 µM
[13] = second compound 0.316 µM, first compound 0.0316 µM
[14] = second compound 0.316 µM, first compound 0.1 µM
[15] = second compound 0.316 µM, first compound 0.316 µM
[16] = second compound 0.316 µM, first compound 1 µM
[17] = second compound 0.316 µM, first compound 3.16 µM
[18] = second compound 0.316 µM, first compound 10 µM
[19] = second compound 1 µM, first compound 0.0316 µM
[20] = second compound 1 µM, first compound 0.1 µM
[21] = second compound 1 µM, first compound 0.316 µM
[22] = second compound 1 µM, first compound 1 µM
[23] = second compound 1 µM, first compound 3.16 µM
[24] = second compound 1 µM, first compound 10 µM
[25] = second compound 3.16 µM, first compound 0.0316 µM
[26] = second compound 3.16 µM, first compound 0.1 µM
[27] = second compound 3.16 µM, first compound 0.316 µM
[28] = second compound 3.16 µM, first compound 1 µM
[29] = second compound 3.16 µM, first compound 3.16 µM
[30] = second compound 3.16 µM, first compound 10 µM
[31] = second compound 10 µM, first compound 0.0316 µM
[32] = second compound 10 µM, first compound 0.1 µM
[33] = second compound 10 µM, first compound 0.316 µM
[34] = second compound 10 µM, first compound 1 µM
[35] = second compound 10 µM, first compound 3.16 µM
[36] = second compound 10 µM, first compound 10 µM
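Further: spheroids exposed to the agents for seven days before readout.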
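Wherever viability, T/C is given: percent of vehicle control viability with DMSO wells as 100%.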

`Cc1cccc(N(C)C(=O)C2C(O)CCN2c2nc(C)cc(C(F)(F)F)c2C#N)c1` (stereo not drawn) + Cc1[nH]c2ccc(F)cc2c1-c1nc2c3cccnc3c3ncccc3c2[nH]1 showed an IC50 (second compound 0.0316 µM) of over 10000 nM, an IC50 (second compound 0.1 µM) of over 10000 nM and an IC50 (second compound 0.316 µM) of over 10000 nM. It also gave an IC50 (second compound 1 µM) of over 10000 nM, an IC50 (second compound 3.16 µM) of under 31.6 nM and an IC50 (second compound 10 µM) of under 31.6 nM. It also gave a viability, T/C [1] of 123%, a viability, T/C [2] of 111% and a viability, T/C [3] of 121%. For the same compound, the viability, T/C [4] was 91.4%, the viability, T/C [5] was 97.2% and the viability, T/C [6] was 92.3%. The viability, T/C [7] was 106%, the viability, T/C [8] was 141% and the viability, T/C [9] was 138%. For the same compound, the viability, T/C [10] was 135%, the viability, T/C [11] was 117% and the viability, T/C [12] was 113%. The viability, T/C [13] was 76.1%, the viability, T/C [14] was 105% and the viability, T/C [15] was 104%. The viability, T/C [16] was 104%, the viability, T/C [17] was 117% and the viability, T/C [18] was 115%. The viability, T/C [19] was 95.2%, the viability, T/C [20] was 86.7% and the viability, T/C [21] was 152%. For the same compound, the viability, T/C [22] was 129%, the viability, T/C [23] was 117% and the viability, T/C [24] was 59%. For the same compound, the viability, T/C [25] was 30.2%, the viability, T/C [26] was 41.4% and the viability, T/C [27] was 38.5%. For the same compound, the viability, T/C [28] was 44.9%, the viability, T/C [29] was 47.7% and the viability, T/C [30] was 42.9%. It also gave a viability, T/C [31] of 27.1%, a viability, T/C [32] of 27.7% and a viability, T/C [33] of 33.7%. For the same compound, the viability, T/C [34] was 27.1%, the viability, T/C [35] was 28.7% and the viability, T/C [36] was 23.5%.

Compound `Cn1ncnc1[C@H]1c2n[nH]c(=O)c3cc(F)cc(c23)N[C@@H]1c1ccc(F)cc1` + Cc1[nH]c2ccc(F)cc2c1-c1nc2c3cccnc3c3ncccc3c2[nH]1 has an IC50 (second compound 0.0316 µM) of over 316 nM, an IC50 (second compound 0.1 µM) of over 316 nM and an IC50 (second compound 0.316 µM) of over 316 nM. The IC50 (second compound 1 µM) was over 316 nM, the IC50 (second compound 3.16 µM) was under 0.999 nM and the IC50 (second compound 10 µM) was under 0.999 nM. The viability, T/C (second compound 0.0316 µM, first compound 0.000999 µM) was 125%, the viability, T/C (second compound 0.0316 µM, first compound 0.00316 µM) was 95.4% and the viability, T/C (second compound 0.0316 µM, first compound 0.00999 µM) was 87.6%. It also gave a viability, T/C [1] of 77.8%, a viability, T/C (second compound 0.0316 µM, first compound 0.0999 µM) of 93.9% and a viability, T/C [3] of 87%. It also gave a viability, T/C (second compound 0.1 µM, first compound 0.000999 µM) of 79.2%, a viability, T/C (second compound 0.1 µM, first compound 0.00316 µM) of 83.9% and a viability, T/C (second compound 0.1 µM, first compound 0.00999 µM) of 114%. For the same compound, the viability, T/C [7] was 101%, the viability, T/C (second compound 0.1 µM, first compound 0.0999 µM) was 99.5% and the viability, T/C [9] was 80.9%. It also gave a viability, T/C (second compound 0.316 µM, first compound 0.000999 µM) of 86.9%, a viability, T/C (second compound 0.316 µM, first compound 0.00316 µM) of 110% and a viability, T/C (second compound 0.316 µM, first compound 0.00999 µM) of 92.1%. It also gave a viability, T/C [13] of 71.7%, a viability, T/C (second compound 0.316 µM, first compound 0.0999 µM) of 82.9% and a viability, T/C [15] of 68.5%. For the same compound, the viability, T/C (second compound 1 µM, first compound 0.000999 µM) was 60.2%, the viability, T/C (second compound 1 µM, first compound 0.00316 µM) was 67.9% and the viability, T/C (second compound 1 µM, first compound 0.00999 µM) was 94.8%. The viability, T/C [19] was 72.2%, the viability, T/C (second compound 1 µM, first compound 0.0999 µM) was 60.3% and the viability, T/C [21] was 56.2%. For the same compound, the viability, T/C (second compound 3.16 µM, first compound 0.000999 µM) was 43.7%, the viability, T/C (second compound 3.16 µM, first compound 0.00316 µM) was 37.5% and the viability, T/C (second compound 3.16 µM, first compound 0.00999 µM) was 25.6%. For the same compound, the viability, T/C [25] was 38.6%, the viability, T/C (second compound 3.16 µM, first compound 0.0999 µM) was 31.8% and the viability, T/C [27] was 41.7%. It also gave a viability, T/C (second compound 10 µM, first compound 0.000999 µM) of 18.4%, a viability, T/C (second compound 10 µM, first compound 0.00316 µM) of 32.4% and a viability, T/C (second compound 10 µM, first compound 0.00999 µM) of 31.2%. The viability, T/C [31] was 22.7%, the viability, T/C (second compound 10 µM, first compound 0.0999 µM) was 22.6% and the viability, T/C [33] was 22.1%.

`Nc1ccn(C2OC(CO)C(O)C2(F)F)c(=O)n1` (stereo not drawn) + Cc1[nH]c2ccc(F)cc2c1-c1nc2c3cccnc3c3ncccc3c2[nH]1 gave an IC50 (second compound 0.0316 µM) of 161 nM, an IC50 (second compound 0.1 µM) of under 31.6 nM and an IC50 (second compound 0.316 µM) of under 31.6 nM. The IC50 (second compound 1 µM) was under 31.6 nM, the IC50 (second compound 3.16 µM) was under 31.6 nM and the IC50 (second compound 10 µM) was under 31.6 nM. It also gave a viability, T/C [1] of 74%, a viability, T/C [2] of 50.2% and a viability, T/C [3] of 47.9%. For the same compound, the viability, T/C [4] was 42%, the viability, T/C [5] was 57.9% and the viability, T/C [6] was 51.1%. For the same compound, the viability, T/C [7] was 53.2%, the viability, T/C [8] was 45.5% and the viability, T/C [9] was 42.1%. The viability, T/C [10] was 49.5%, the viability, T/C [11] was 50.3% and the viability, T/C [12] was 51.9%. For the same compound, the viability, T/C [13] was 39.5%, the viability, T/C [14] was 50% and the viability, T/C [15] was 46.3%. The viability, T/C [16] was 44%, the viability, T/C [17] was 48.1% and the viability, T/C [18] was 33.1%. It also gave a viability, T/C [19] of 50.4%, a viability, T/C [20] of 40.6% and a viability, T/C [21] of 42.1%. The viability, T/C [22] was 34.7%, the viability, T/C [23] was 41.8% and the viability, T/C [24] was 35.5%. The viability, T/C [25] was 26.7%, the viability, T/C [26] was 31.9% and the viability, T/C [27] was 25.5%. For the same compound, the viability, T/C [28] was 24.7%, the viability, T/C [29] was 28.9% and the viability, T/C [30] was 25.9%. It also gave a viability, T/C [31] of 16.3%, a viability, T/C [32] of 19.1% and a viability, T/C [33] of 18%. For the same compound, the viability, T/C [34] was 20.2%, the viability, T/C [35] was 15.7% and the viability, T/C [36] was 18.7%.

Compound `O=c1[nH]cc(F)c(=O)[nH]1` + Cc1[nH]c2ccc(F)cc2c1-c1nc2c3cccnc3c3ncccc3c2[nH]1 has an IC50 (second compound 0.0316 µM) of over 10000 nM, an IC50 (second compound 0.1 µM) of over 10000 nM and an IC50 (second compound 0.316 µM) of over 10000 nM. The IC50 (second compound 1 µM) was 464 nM, the IC50 (second compound 3.16 µM) was under 31.6 nM and the IC50 (second compound 10 µM) was under 31.6 nM. The viability, T/C [1] was 112%, the viability, T/C [2] was 72.3% and the viability, T/C [3] was 80.1%. It also gave a viability, T/C [4] of 74.5%, a viability, T/C [5] of 66.2% and a viability, T/C [6] of 64.9%. The viability, T/C [7] was 94.7%, the viability, T/C [8] was 84.2% and the viability, T/C [9] was 62%. For the same compound, the viability, T/C [10] was 72.1%, the viability, T/C [11] was 64.1% and the viability, T/C [12] was 61.3%. The viability, T/C [13] was 78.5%, the viability, T/C [14] was 66.5% and the viability, T/C [15] was 52.8%. The viability, T/C [16] was 65.3%, the viability, T/C [17] was 49.1% and the viability, T/C [18] was 56%. For the same compound, the viability, T/C [19] was 53.2%, the viability, T/C [20] was 75% and the viability, T/C [21] was 51.9%. The viability, T/C [22] was 47.9%, the viability, T/C [23] was 50.2% and the viability, T/C [24] was 40.6%. The viability, T/C [25] was 34.2%, the viability, T/C [26] was 27.4% and the viability, T/C [27] was 25.1%. It also gave a viability, T/C [28] of 26.7%, a viability, T/C [29] of 24.1% and a viability, T/C [30] of 27.7%. For the same compound, the viability, T/C [31] was 17.9%, the viability, T/C [32] was 25.7% and the viability, T/C [33] was 19%. It also gave a viability, T/C [34] of 19.3%, a viability, T/C [35] of 16.4% and a viability, T/C [36] of 21.3%.
